{"source": "ChEMBL document CHEMBL4507296", "about": "(2021)", "key": {"[1]": {"target": "Tyrosine-protein kinase Fgr (Homo sapiens) (UniProt P09769)", "conditions": "Compound concentration 1000.0 nM"}, "[2]": {"target": "Vascular endothelial growth factor receptor 3 (Homo sapiens) (UniProt P35916)", "conditions": "Compound concentration 1000.0 nM"}, "[3]": {"target": "Serine/threonine-protein kinase 17B (Homo sapiens) (UniProt O94768)", "conditions": "Compound concentration 1000.0 nM"}, "[4]": {"target": "Tyrosine-protein kinase JAK2 (Homo sapiens) (UniProt O60674)", "sequence (O60674 whole entry)": "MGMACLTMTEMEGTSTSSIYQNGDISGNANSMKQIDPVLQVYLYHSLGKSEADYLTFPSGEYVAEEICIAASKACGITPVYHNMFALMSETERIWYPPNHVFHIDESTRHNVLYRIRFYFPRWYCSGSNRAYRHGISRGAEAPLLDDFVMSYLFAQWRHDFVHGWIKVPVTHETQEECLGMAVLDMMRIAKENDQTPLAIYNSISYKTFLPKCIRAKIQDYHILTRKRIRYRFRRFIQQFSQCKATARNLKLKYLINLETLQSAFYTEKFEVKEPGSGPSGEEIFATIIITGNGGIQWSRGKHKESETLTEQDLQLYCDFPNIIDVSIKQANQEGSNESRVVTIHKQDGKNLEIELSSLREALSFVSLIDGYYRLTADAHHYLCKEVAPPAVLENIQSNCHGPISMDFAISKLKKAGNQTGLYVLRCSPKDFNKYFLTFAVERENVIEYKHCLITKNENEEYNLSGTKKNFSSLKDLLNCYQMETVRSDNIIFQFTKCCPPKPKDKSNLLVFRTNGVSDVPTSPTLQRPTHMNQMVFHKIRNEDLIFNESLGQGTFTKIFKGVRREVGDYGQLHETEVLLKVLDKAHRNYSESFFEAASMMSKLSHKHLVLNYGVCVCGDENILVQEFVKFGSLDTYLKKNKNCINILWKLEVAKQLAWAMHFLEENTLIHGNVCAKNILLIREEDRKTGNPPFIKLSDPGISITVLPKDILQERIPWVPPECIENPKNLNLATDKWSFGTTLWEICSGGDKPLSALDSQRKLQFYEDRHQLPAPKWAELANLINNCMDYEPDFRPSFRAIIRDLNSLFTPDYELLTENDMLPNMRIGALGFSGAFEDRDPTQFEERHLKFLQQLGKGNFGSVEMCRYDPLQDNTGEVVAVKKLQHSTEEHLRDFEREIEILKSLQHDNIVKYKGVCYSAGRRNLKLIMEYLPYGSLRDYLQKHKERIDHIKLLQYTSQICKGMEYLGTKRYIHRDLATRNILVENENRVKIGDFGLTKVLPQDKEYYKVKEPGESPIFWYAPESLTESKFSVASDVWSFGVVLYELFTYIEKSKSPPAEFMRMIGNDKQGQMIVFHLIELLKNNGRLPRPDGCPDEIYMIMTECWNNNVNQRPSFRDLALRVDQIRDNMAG", "conditions": "Compound concentration 1000.0 nM"}, "[5]": {"target": "MAP/microtubule affinity-regulating kinase 3 (Homo sapiens) (UniProt P27448)", "conditions": "Compound concentration 1000.0 nM"}, "[6]": {"target": "Casein kinase I isoform alpha (Homo sapiens) (UniProt P48729)", "conditions": "Compound concentration 1000.0 nM"}, "[7]": {"target": "Non-receptor tyrosine-protein kinase TYK2 (Homo sapiens) (UniProt P29597)", "sequence (P29597 whole entry)": "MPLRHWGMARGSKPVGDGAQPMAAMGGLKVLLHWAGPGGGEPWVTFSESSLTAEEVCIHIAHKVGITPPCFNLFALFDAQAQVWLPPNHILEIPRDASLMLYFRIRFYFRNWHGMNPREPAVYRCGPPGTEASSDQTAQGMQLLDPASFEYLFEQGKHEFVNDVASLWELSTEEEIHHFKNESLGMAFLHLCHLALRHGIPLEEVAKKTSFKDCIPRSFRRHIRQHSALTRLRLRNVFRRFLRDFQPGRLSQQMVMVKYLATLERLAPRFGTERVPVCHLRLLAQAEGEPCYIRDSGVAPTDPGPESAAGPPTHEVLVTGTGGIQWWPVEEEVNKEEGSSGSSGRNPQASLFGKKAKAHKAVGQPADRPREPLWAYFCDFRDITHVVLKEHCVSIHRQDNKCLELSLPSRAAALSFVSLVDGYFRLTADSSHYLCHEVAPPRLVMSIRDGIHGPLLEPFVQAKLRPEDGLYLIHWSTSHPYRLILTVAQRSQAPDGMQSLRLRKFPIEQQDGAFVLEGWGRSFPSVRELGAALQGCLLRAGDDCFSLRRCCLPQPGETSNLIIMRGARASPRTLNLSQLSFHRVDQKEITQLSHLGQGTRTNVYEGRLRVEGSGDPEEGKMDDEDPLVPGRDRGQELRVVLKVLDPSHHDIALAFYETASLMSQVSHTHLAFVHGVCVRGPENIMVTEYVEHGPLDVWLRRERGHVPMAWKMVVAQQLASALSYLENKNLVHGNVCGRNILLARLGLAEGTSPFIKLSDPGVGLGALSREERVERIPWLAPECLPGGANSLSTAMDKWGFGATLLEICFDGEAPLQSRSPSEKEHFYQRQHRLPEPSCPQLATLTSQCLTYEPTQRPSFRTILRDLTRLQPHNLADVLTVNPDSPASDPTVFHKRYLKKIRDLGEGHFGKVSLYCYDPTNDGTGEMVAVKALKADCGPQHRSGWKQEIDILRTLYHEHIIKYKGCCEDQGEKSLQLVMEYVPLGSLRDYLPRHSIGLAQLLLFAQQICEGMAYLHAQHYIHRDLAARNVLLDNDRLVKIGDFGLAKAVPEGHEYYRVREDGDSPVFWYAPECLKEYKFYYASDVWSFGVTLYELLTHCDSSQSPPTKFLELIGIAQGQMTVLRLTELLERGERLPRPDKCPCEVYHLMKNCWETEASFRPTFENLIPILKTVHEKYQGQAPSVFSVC", "conditions": "Compound concentration 1000.0 nM"}, "[8]": {"target": "5-hydroxytryptamine receptor 5A (Homo sapiens) (UniProt P47898)", "sequence (P47898 whole entry)": "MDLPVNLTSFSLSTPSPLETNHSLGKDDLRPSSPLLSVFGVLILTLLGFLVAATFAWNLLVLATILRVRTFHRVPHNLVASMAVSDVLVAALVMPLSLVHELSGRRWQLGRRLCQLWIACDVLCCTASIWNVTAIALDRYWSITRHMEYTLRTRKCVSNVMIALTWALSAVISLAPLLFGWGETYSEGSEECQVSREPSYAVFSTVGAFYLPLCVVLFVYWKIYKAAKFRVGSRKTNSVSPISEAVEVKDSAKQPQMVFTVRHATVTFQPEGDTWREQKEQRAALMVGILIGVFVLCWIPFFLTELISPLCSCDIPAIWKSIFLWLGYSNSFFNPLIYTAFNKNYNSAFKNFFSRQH", "conditions": "Compound concentration 10.0 uM"}, "[9]": {"target": "Dual specificity mitogen-activated protein kinase kinase 3 (Homo sapiens) (UniProt P46734)", "sequence (P46734 whole entry)": "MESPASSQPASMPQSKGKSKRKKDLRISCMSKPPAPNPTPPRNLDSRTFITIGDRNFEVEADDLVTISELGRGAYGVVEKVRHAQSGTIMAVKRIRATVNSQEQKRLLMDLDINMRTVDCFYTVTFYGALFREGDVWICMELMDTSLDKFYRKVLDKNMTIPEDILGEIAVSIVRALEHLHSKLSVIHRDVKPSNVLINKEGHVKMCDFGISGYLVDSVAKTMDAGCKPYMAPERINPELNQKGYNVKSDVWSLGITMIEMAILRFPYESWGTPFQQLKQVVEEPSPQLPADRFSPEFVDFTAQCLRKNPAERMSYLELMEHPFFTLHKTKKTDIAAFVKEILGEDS", "conditions": "Compound concentration 1000.0 nM"}, "[10]": {"target": "Ephrin type-B receptor 3 (Homo sapiens) (UniProt P54753)", "conditions": "Compound concentration 1000.0 nM"}, "[11]": {"target": "Atypical kinase COQ8A, mitochondrial (Homo sapiens) (UniProt Q8NI60)", "sequence (Q8NI60 163-647 limits assumed)": "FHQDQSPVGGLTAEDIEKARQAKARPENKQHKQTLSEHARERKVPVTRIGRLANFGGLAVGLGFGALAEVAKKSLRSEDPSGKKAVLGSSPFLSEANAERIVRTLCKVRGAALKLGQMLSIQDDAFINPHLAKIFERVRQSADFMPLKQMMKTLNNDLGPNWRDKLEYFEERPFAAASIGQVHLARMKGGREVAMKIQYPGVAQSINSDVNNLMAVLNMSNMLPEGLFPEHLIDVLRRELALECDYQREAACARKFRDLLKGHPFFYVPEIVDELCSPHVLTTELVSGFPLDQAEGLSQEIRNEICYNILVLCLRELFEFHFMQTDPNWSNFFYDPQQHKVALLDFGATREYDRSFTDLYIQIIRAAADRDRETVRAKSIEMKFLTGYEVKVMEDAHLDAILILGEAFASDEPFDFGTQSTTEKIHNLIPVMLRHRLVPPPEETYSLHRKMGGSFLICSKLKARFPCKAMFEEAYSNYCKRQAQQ", "conditions": "Compound concentration 1000.0 nM"}, "[12]": {"test_system": "Receptor-type tyrosine-protein kinase FLT3 (Homo sapiens), P36888 [D835H]", "conditions": "Compound concentration 1000.0 nM"}, "[13]": {"target": "Tyrosine-protein kinase Yes (Homo sapiens) (UniProt P07947)", "conditions": "Compound concentration 1000.0 nM"}, "[14]": {"target": "1-phosphatidylinositol 3-phosphate 5-kinase (Homo sapiens) (UniProt Q9Y2I7)", "conditions": "Compound concentration 1000.0 nM"}, "[15]": {"target": "Sigma non-opioid intracellular receptor 1 (Homo sapiens) (UniProt Q99720)", "conditions": "Compound concentration 10.0 uM"}, "[16]": {"target": "Transient receptor potential cation channel subfamily M member 8 (Homo sapiens, UniProt Q7Z2W7)", "assay": "Voltage activation at 12 °C"}, "[17]": {"target": "Mu-type opioid receptor (Homo sapiens) (UniProt P35372)", "assay": "m-Opioid (human) CEREP ligand profiling", "conditions": "Compound concentration 10.0 uM"}, "[18]": {"target": "Activated CDC42 kinase 1 (Homo sapiens) (UniProt Q07912)", "conditions": "Compound concentration 1000.0 nM"}, "[19]": {"target": "Fibroblast growth factor receptor 3 (Homo sapiens) (UniProt P22607)", "conditions": "Compound concentration 1000.0 nM"}, "[20]": {"target": "Protein-tyrosine kinase 6 (Homo sapiens) (UniProt Q13882)", "sequence (Q13882 whole entry, looked up)": "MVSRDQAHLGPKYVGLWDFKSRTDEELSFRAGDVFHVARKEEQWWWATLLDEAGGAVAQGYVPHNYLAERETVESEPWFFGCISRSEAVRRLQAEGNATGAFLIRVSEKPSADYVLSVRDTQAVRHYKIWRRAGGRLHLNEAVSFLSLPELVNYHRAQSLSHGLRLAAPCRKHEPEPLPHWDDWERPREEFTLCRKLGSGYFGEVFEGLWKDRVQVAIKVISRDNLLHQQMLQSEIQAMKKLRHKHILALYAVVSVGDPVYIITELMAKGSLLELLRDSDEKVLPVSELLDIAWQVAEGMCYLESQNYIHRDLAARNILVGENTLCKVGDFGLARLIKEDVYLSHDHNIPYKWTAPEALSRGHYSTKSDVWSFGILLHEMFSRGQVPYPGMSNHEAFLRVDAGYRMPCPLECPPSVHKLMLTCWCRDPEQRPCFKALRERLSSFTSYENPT", "conditions": "Compound concentration 1000.0 nM"}, "[21]": {"target": "Myosin-IIIa (Homo sapiens) (UniProt Q8NEV4)", "conditions": "Compound concentration 1000.0 nM"}, "[22]": {"target": "Aurora kinase C (Homo sapiens) (UniProt Q9UQB9)", "conditions": "Compound concentration 1000.0 nM"}, "[23]": {"target": "Ribosomal protein S6 kinase alpha-2 (Homo sapiens) (UniProt Q15349)", "conditions": "Compound concentration 1000.0 nM"}, "[24]": {"target": "Serine/threonine-protein kinase 32A (Homo sapiens) (UniProt Q8WU08)", "conditions": "Compound concentration 1000.0 nM"}, "[25]": {"target": "Serine/threonine-protein kinase Nek11 (Homo sapiens) (UniProt Q8NG66)", "conditions": "Compound concentration 1000.0 nM"}, "[26]": {"test_system": "Receptor-type tyrosine-protein kinase FLT3 (Homo sapiens), P36888 [UNDEFINED MUTATION]", "conditions": "Compound concentration 1000.0 nM"}, "[27]": {"target": "Serine/threonine-protein kinase mTOR (Homo sapiens) (UniProt P42345)", "conditions": "Compound concentration 1000.0 nM"}, "[28]": {"target": "Serine/threonine-protein kinase Chk2 (Homo sapiens) (UniProt O96017)", "conditions": "Compound concentration 1000.0 nM"}, "[29]": {"target": "SRSF protein kinase 3 (Homo sapiens) (UniProt Q9UPE1)", "conditions": "Compound concentration 1000.0 nM"}, "[30]": {"test_system": "Epidermal growth factor receptor (Homo sapiens), P00533 [UNDEFINED MUTATION]", "conditions": "Compound concentration 1000.0 nM"}, "[31]": {"target": "Sigma intracellular receptor 2 (Homo sapiens) (UniProt Q5BJF2)", "conditions": "Compound concentration 10.0 uM"}, "[32]": {"target": "Epidermal growth factor receptor (Homo sapiens) (UniProt P00533)", "conditions": "Compound concentration 1000.0 nM"}, "[33]": {"target": "Serine/threonine-protein kinase 26 (Homo sapiens) (UniProt Q9P289)", "conditions": "Compound concentration 1000.0 nM"}, "[34]": {"target": "Insulin receptor-related protein (Homo sapiens) (UniProt P14616)", "conditions": "Compound concentration 1000.0 nM"}, "[35]": {"target": "Serine/threonine-protein kinase PRP4 homolog (Homo sapiens) (UniProt Q13523)", "conditions": "Compound concentration 1000.0 nM"}, "[36]": {"target": "Cyclin-dependent kinase-like 5 (Homo sapiens) (UniProt O76039)", "sequence (O76039 whole entry)": "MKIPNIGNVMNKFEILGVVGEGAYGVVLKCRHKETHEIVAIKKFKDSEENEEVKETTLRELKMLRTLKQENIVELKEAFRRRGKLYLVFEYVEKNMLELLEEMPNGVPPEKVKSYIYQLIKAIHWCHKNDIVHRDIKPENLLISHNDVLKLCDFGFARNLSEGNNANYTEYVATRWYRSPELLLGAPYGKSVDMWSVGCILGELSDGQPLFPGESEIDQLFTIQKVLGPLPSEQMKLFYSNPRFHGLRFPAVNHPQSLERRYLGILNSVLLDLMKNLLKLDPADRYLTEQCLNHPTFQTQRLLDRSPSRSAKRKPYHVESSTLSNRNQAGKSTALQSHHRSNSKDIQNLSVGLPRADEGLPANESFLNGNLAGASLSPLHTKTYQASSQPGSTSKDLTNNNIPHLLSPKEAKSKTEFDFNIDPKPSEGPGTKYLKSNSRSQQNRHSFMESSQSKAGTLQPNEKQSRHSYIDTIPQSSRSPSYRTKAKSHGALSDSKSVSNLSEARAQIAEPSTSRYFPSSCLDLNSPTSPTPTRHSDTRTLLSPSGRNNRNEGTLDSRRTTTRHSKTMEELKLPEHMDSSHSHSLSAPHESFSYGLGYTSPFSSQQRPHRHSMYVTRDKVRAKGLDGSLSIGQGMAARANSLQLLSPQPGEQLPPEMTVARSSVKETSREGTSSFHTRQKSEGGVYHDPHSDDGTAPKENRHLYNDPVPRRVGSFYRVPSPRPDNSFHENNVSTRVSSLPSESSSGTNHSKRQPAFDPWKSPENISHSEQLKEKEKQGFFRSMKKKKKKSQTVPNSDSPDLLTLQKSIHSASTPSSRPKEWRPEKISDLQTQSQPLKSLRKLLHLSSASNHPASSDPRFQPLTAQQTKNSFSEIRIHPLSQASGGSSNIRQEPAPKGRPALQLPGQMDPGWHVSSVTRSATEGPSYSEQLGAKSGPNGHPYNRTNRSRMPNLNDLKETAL", "conditions": "Compound concentration 1000.0 nM"}, "[37]": {"target": "Serine/threonine-protein kinase pim-1 (Homo sapiens) (UniProt P11309)", "conditions": "Compound concentration 1000.0 nM"}, "[38]": {"target": "T1, Alpha-2B adrenergic receptor (Homo sapiens) (UniProt P18089)", "T1 sequence (whole entry)": "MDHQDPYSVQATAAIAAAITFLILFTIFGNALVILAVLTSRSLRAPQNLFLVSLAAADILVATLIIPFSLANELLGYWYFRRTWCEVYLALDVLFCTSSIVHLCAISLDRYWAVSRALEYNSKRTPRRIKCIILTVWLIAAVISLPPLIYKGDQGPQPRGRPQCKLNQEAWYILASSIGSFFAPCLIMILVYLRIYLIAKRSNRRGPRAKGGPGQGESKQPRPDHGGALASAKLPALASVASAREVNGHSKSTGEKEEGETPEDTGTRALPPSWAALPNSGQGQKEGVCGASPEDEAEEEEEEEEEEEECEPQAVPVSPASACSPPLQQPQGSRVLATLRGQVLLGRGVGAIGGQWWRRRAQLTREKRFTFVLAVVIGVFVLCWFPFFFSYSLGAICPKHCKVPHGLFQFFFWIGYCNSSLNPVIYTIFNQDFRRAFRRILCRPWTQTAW", "conditions": "Compound concentration 10.0 uM"}, "[39]": {"target": "Serine/threonine-protein kinase RIO1 (Homo sapiens) (UniProt Q9BRS2)", "conditions": "Compound concentration 1000.0 nM"}, "[40]": {"target": "Cyclin-dependent kinase 7 (Homo sapiens) (UniProt P50613)", "conditions": "Compound concentration 1000.0 nM"}}, "note": "The source made the active and inactive calls. No cut-off for these calls is given here.", "data": [{"smiles": "C[C@H](c1ccc(F)cc1)N(Cc1cccc(C(=O)O)c1)C(=O)c1cnc2ccccc2c1", "note": "[PF-05105679]", "values": [{"measurement": "residual activity", "setting": "[1]", "value": 100, "unit": "%"}, {"measurement": "residual activity", "setting": "[2]", "value": 95, "unit": "%"}, {"measurement": "residual activity", "setting": "[3]", "value": 80, "unit": "%"}, {"measurement": "residual activity", "setting": "[4]", "value": 88, "unit": "%"}, {"measurement": "residual activity", "setting": "[5]", "value": 100, "unit": "%"}, {"measurement": "residual activity", "setting": "[6]", "value": 100, "unit": "%"}, {"measurement": "residual activity", "setting": "[7]", "value": 100, "unit": "%"}, {"measurement": "inhibition", "setting": "[8]", "value": -1.89, "unit": "%"}, {"measurement": "residual activity", "setting": "[9]", "value": 91, "unit": "%"}, {"measurement": "residual activity", "setting": "[10]", "value": 100, "unit": "%"}, {"measurement": "residual activity", "setting": "[11]", "value": 85, "unit": "%"}, {"measurement": "residual activity", "setting": "[12]", "value": 84, "unit": "%"}, {"measurement": "residual activity", "setting": "[13]", "value": 100, "unit": "%"}, {"measurement": "residual activity", "setting": "[14]", "value": 100, "unit": "%"}, {"measurement": "inhibition", "setting": "[15]", "value": 16, "unit": "%"}, {"measurement": "IC50", "setting": "[16]", "value": "13.8 nM (active)"}, {"measurement": "inhibition", "setting": "[17]", "value": 25, "unit": "%"}, {"measurement": "residual activity", "setting": "[18]", "value": 100, "unit": "%"}, {"measurement": "residual activity", "setting": "[19]", "value": 82, "unit": "%"}, {"measurement": "residual activity", "setting": "[20]", "value": 83, "unit": "%"}, {"measurement": "residual activity", "setting": "[21]", "value": 100, "unit": "%"}, {"measurement": "residual activity", "setting": "[22]", "value": 100, "unit": "%"}, {"measurement": "residual activity", "setting": "[23]", "value": 100, "unit": "%"}, {"measurement": "residual activity", "setting": "[24]", "value": 100, "unit": "%"}, {"measurement": "residual activity", "setting": "[25]", "value": 82, "unit": "%"}, {"measurement": "residual activity", "setting": "[26]", "value": 100, "unit": "%"}, {"measurement": "residual activity", "setting": "[27]", "value": 93, "unit": "%"}, {"measurement": "residual activity", "setting": "[28]", "value": 91, "unit": "%"}, {"measurement": "residual activity", "setting": "[29]", "value": 92, "unit": "%"}, {"measurement": "residual activity", "setting": "[30]", "value": 100, "unit": "%"}, {"measurement": "inhibition", "setting": "[31]", "value": 3.36, "unit": "%"}, {"measurement": "residual activity", "setting": "[32]", "value": 100, "unit": "%"}, {"measurement": "residual activity", "setting": "[33]", "value": 79, "unit": "%"}, {"measurement": "residual activity", "setting": "[34]", "value": 84, "unit": "%"}, {"measurement": "residual activity", "setting": "[35]", "value": 100, "unit": "%"}, {"measurement": "residual activity", "setting": "[36]", "value": 100, "unit": "%"}, {"measurement": "residual activity", "setting": "[37]", "value": 100, "unit": "%"}, {"measurement": "inhibition", "setting": "[38]", "value": 20.2, "unit": "%"}, {"measurement": "residual activity", "setting": "[39]", "value": 100, "unit": "%"}, {"measurement": "residual activity", "setting": "[40]", "value": 100, "unit": "%"}]}]}
